According to patent US9340559B2, “Proteasome inhibitor delanzomib for use in the treatment of lupus” (Cephalon, Inc., priority 2011, dated 2016):

Tested on: NZM mice
Assay: Total urine protein (proteinuria), NZM mice (Example 3)
Assay type: in vivo, mouse
Settings: Groups 1, 2, 4, and 5
Protocol: FIG. 45 depicts total urine protein (proteinuria) in NZM mice. Urine collected from NZM mice was analyzed for total protein content using a rat urinalysis kit.
Urine samples are acid precipitated for total protein analysis. For urine sample preparation, urine samples are centrifuged at 10,000 rpm for 3 minutes using a tabletop micro-centrifuge. 1-50 μL of urine supernatant is added in duplicate. PBS is added to adjust the volume to 50 μL total. For the turbidity assay: 25 μL of 0.1 N HCl is added into blank columns and 250 μL of 3% sulfosalicyclic acid into the test columns. The microplate is incubated for 10 minutes at RT and plates are read using an ELISA reader with single beam at 450 nm. A standard protein solution is prepared from normal mouse sera and is used as a standard for mouse urinary protein assay by turbidity. Standard preparation is as follows: 0, 5, 10, 15, 20, 30, 40, and 50 μL of a 4 mg/mL mouse sera standard protein solution as provided in the kit are added in duplicate into two columns. PBS is added to individual wells to adjust the final volume to 50 μL. Samples for which enough urine remains are used for Uristix® leukouria analysis. For the Uristix® strip assay, strips are laid out and labeled. Twenty microliters of urine are placed onto each test strip square and incubated for at least 30 seconds before the result is recorded. […]

For `CC(C)C[C@H](NC(=O)[C@@H](NC(=O)c1cccc(-c2ccccc2)n1)[C@@H](C)O)B(O)O` [COMPOUND A, [(1R)-1-[[(2S,3R)-3-hydroxy-2-[6-phenyl-pyridine-2-carbonyl)amino]-1-oxobutyl]amino]-3-methylbutylboronic acid], the “proteinuria compared to vehicle (Group 10) and bortezomib ip (Group 7)” value was “reduced proteinuria”.
